According to paper PMC10606064, “2-Aminothiazole-Flavonoid Hybrid Derivatives Binding to Tau Protein and Responsible for Antitumor Activity in Glioblastoma” (International Journal of Molecular Sciences, 2023):

Key:
[1] = test system: U87 shTau cells; experiment: MTT cell viability assay, U87 shTau (Tau-depleted); type: cell-based; settings: Homo sapiens, 72 h, mean ± SEM, read-out: IC50 (metabolic activity)
Description: All cell lines were purchased from ATCC, Gaithersburg, MD, USA. Cells from human glioblastoma (clones U87 wt, HTB-14; U118, HTB-15; U251, HTB-12; U138, HTB-16), neuroblastoma (clone SK-N-SH, HTB-11), and colorectal adenocarcinoma (clone Caco-2, HTB-37) were routinely grown at 37 °C in a humidified atmosphere containing 5% CO2. Cells were maintained by regular passages in complete media supplemented with 10% FBS, 2mM of L-glutamine, 100 U/mL of penicillin, and 50 U/mL of streptomycin (Invitrogen, Paris, France). For U87 wt, U251, U138, and SK-N-SH cells, the medium consisted of EMEM (Lonza, Levallois Perret, France). U118 and Caco-2 lines were maintained in DMEM. The U87 wt-derived lines, U87 shCTRL, and U87 shTau2 cells were continuously maintained in complete EMEM medium supplemented with 0.4 µg/mL of puromycin. The shRNA sequences and the protocol of clone selection and Tau downregulation were previously described in [20]. For Tau expression rescue, the U87 shCTRL and U87 shTau cells were seeded two days prior to experiments at 4.10^5 cells per 60 mm dish in 6 mL of complete medium. Cells were transfected using LipofectAmine 2000 according to Invitrogen instructions and 8 µg EGFP-free plasmid constructs (for U87 shCTRL) and EGFP-hTau40 plasmid constructs (for U87 shTau) were used in total. One day prior to experiments, all cells were plated in a 96-well microtiter plate to prepare for viability assays. Cells were free from mycoplasma as determined by mycoalert tests (Lonza).
Cells harvested from sub-confluent monolayers were seeded at 15,000 cells per mL in a 96-well microtiter plate (Cambridge Technology, Labège, France) and cultured for 24 h under standard conditions. Standard medium was then replaced by fresh medium containing no drugs or compounds at different concentrations. The surviving cells were quantified after 72 h by the MTT assay, according to the manufacturer’s instructions. Briefly, 20 µL of 3-(4,5-diMethylThiazol-2-yl)-2,5diphenyl Tetrazolium bromide (MTT) solution at 5 mg.mL^−1 was added to cells for 3 h at 37 °C. The supernatant was discarded and replaced by 100 µL of dimethyl sulfoxide to dissolve formazan crystals. The absorbance was then read at 600 nm by spectrophotometry. For all concentrations of a given compound, cell viability was expressed as the percentage of the ratio between the mean absorbance of treated cells and the mean absorbance of untreated cells. Three independent experiments were performed, and the data were expressed as percentage of survival (using the untreated cells as 100%) and subjected to statistical analysis (n = 3). The IC50 was calculated using the Chou and Talalay method.

[2] = test system: U87 shTau cells; experiment: Cell cycle by flow cytometry (propidium iodide), U87 shTau; type: cell-based, human; settings: 48 h
Description: Measurements of cell cycle from DNA content were performed by flow cytometry as described before. Briefly, 4.10^5 cells in exponential growth were seeded in 6-well plates. After 24 h, they were treated with 10 µM of compounds for 48 h. Nocodazole was used as a positive control with a concentration of 1 µM. The trypsinized cells were harvested and then centrifuged (1200 rpm, 5 min, at room temperature). The cell pellet was resuspended in 1 mL of PBS 1× at 4 °C, and then an extra 4 mL of cold PBS was added to wash the pellet. Cells were then centrifuged again (1200 rpm, 5 min, at 4 °C). To fixate the cells, the pellet was resuspended in 100 µL of cold 70% ethanol, then an additional 900 µL was added and cells were incubated for 30 min at −20 °C. After that, 9 mL of cold PBS was added, and cells were centrifuged (2000 rpm, 5 min, at 4 °C) to remove ethanol. The cell pellet was then resuspended in the staining mix containing 50 µg.mL^−1 of propidium iodide (Molecular Probes, Paris, France) and 100 µg.mL^−1 of RNAse A (Sigma-Aldrich, Saint-Quentin-Fallavier, France) in PBS for 20 min at room temperature in darkness. Samples were analyzed on a Beckman–Coulter–Gallios flow cytometer using the Kaluza for Gallios Acquisition v1.0 software. Propidium iodide was excited at 488 nm, and fluorescence was analyzed at 620 nm on channel FL-3. For the analysis, there is considerable overlap between early S phase and G1 and between late S phase and G2/M due to broadening of the distribution caused by variability in the staining of the cells and instrumental variability. Therefore, the percentages of cells in the sub-G1, G1, S, and G2/M phases of the cell cycle were calculated using the Watson et al. algorithm for cell cycle analysis in Kaluza for Gallios Analysis v2.1 software. The software automatically adjusted gates based on PI median fluorescence intensity of the cells and their frequency among total cells. The number of cells in each phase was divided by the total number of analyzed cells, and the values were reported as percentage of the total cells for each cell cycle phase.

[3] = test system: U87 shCTRL cells; experiment: Mitotic index by high-content imaging, U87 shCTRL; type: cell-based, human; settings: 48 h, 5-times IC50 of compounds
Description: For scoring mitotic indexes, an automated high-content screening confocal microscopy approach was employed to identify cells undergoing mitosis from a large population of cells. For this, cells nuclei were stained with DAPI. Briefly, fibronectin-coated clear-glass-bottom black 96-well imaging plates were seeded with 100 µL of cell suspension (60,000 cell.mL^−1) in each well, with both U87 shCTRL and U87 ShTau cell lines. Cells were treated with 5-times IC50 of compounds for 48 h, then they were fixated inside the palates with 4% formaldehyde (in PBS pH 7.4) for 20 min at room temperature, permeabilized with PBS-Triton X-100 0.5% for 10 min at room temperature. DNA was then stained with DAPI (10 µg.mL^−1) for 5 min at room temperature and in the darkness. After being washed, cells were kept in PBS at 4 °C and imaged while in PBS. Automated confocal microscopy was carried out using an Opera Phenix (PerkinElmer) high-content screening microscope using a 20× Air/0.4 NA air objective. For each condition, 6 wells were prepared and a total of 61 fields were acquired for each well. Image analysis was performed using Harmony high-content analysis v4.8 software and PhenoLOGIC Machine Learning technology, which uses a learn-by-example approach. As a first step, nuclei were segmented and multiple parameters for these nuclei were calculated using Harmony v4.8 software building blocks. After training, PhenoLOGIC Machine Learning then selects the best parameters to detect nuclei undergoing the M phase of mitosis. From this, the mitotic index of each condition was calculated by dividing the number of cells undergoing mitosis over the total number of cells.

IC50 [1] [µM] | Structure (SMILES) | %G1 (cells in G1 phase) ([2]; compounds 10 µM, NOC 1 µM) [%] | %G2/M (cells in G2/M phase) ([2]; compounds 10 µM, NOC 1 µM) [%] | mitotic index [3] | effect on cell cycle progression ([2]; 10 µM)
> 100 | Nc1nc2ccc3oc(C(=O)O)cc(=O)c3c2s1 [Compound 5] | 62 ± 5 | 25 ± 1 | 2.47 ± 0.19% | –
4.7 ± 0.3 | Nc1nc2ccc3oc(-c4cccc(Oc5ccccc5)c4)cc(=O)c3c2s1 [Compound 2, 2-amino-7-(3-phenoxyphenyl)-9H-chromeno [6,5-d]thiazol-9-one] | – | – | no significant variation of mitotic indexes | no significant effect on cell cycle progression
